Experimental data from patent US20220033397A1, “PHARMACEUTICAL COMPOUNDS AND THEIR USE AS INHIBITORS OF UBIQUITIN SPECIFIC PROTEASE 19 (USP19)” (ALMAC DISCOVERY LIMITED, priority 2018, published 2022).

Molecular target: T1, Full-length USP19 (Homo sapiens, UniProt O94966)
T1 construct: Full-length USP19 was purchased from Boston Biochem (E-576); purchased Boston Biochem E-576
T1 sequence (O94966 1-1318): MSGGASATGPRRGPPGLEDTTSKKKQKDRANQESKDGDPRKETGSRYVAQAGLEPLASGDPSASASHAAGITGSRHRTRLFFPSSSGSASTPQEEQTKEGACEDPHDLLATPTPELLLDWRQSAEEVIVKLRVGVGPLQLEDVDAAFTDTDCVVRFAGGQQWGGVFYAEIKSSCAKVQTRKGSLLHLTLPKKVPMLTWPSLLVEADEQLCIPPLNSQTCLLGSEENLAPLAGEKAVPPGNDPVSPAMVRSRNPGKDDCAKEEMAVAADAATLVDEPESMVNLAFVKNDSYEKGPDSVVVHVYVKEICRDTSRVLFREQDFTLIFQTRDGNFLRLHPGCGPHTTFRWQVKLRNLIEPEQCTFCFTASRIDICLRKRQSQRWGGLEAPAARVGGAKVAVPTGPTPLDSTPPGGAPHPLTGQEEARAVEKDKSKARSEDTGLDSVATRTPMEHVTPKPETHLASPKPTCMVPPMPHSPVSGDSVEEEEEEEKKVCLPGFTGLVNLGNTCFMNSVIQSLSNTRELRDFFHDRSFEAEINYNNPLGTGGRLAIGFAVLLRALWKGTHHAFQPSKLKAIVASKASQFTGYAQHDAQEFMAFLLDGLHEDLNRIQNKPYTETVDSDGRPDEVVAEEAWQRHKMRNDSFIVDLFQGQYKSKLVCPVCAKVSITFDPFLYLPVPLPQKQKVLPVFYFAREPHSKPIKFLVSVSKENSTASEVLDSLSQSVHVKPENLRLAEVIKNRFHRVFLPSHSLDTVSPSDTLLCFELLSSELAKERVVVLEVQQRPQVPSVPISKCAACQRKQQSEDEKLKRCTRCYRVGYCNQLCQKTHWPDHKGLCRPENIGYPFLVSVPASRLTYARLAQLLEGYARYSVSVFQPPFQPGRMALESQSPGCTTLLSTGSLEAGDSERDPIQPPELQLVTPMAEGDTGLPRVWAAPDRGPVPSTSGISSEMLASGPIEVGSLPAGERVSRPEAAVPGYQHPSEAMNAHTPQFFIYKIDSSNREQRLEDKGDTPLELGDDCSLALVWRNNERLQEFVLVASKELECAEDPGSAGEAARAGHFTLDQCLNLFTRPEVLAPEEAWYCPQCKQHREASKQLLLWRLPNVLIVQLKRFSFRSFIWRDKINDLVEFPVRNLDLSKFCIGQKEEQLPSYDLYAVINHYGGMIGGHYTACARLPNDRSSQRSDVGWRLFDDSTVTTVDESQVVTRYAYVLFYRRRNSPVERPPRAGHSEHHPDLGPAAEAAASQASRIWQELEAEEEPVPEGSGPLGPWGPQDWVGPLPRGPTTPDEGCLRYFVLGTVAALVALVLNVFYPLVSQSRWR
Experiment: USP19 fluorescence polarisation (FP) homogeneous assay with Ubiquitin-Lys-TAMRA substrate
Type: biochemical
Settings: 2.5 nM USP19, 30 min pre-incubation, average of at least two duplicate experiments
In short: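 Full-length USP19 preincubated 30 min at RT with inhibitor (200 μM to 2 μM series, 8–18 points) before adding 500 nM Ubiquitin-Lys-TAMRA substrate.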

Row | IC50 | SMILES
1 | 50 to 250 µM | C[C@H](CC(F)(F)F)C(=O)N1CCC(O)(Cn2cnc3sccc3c2=O)C2(CCCC2)C1 (stereo partly drawn) [Example 123, 3-((10-Hydroxy-7-((R)-4,4,4-trifluoro-2-methylbutanoyl)-7-azaspiro[4.5]decan-10-yl)methyl)thieno[2,3-d]pyrimidin-4(3H)-one]
2 | < 0.5 µM | CCn1ncc2c(=O)n(CC3(O)CCN(C(=O)[C@H](C)CC4CCCCC4)CC34CCCC4)cnc21 (stereo partly drawn) [Example 124, 5-((7-((R)-3-Cyclohexyl-2-methylpropanoyl)-10-hydroxy-7-azaspiro[4.5]decan-10-yl)methyl)-1-ethyl-1,5-dihydro-4H-pyrazolo[3,4-d]pyrimidin-4-one]
3 | 0.5 to 5 µM | Cc1cccc2c(=O)n(CC3(O)CCN(C(=O)[C@H](C)CC4CCCCC4)CC34CCCC4)cnc12 (stereo partly drawn) [Example 125, 3-((7-((R)-3-Cyclohexyl-2-methylpropanoyl)-10-hydroxy-7-azaspiro[4.5]decan-10-yl)methyl)-8-methylquinazolin-4(3H)-one]
4 | 5 to 50 µM | C[C@H](CC(F)(F)F)C(=O)N1CCC(O)(Cn2ccc3cc(C(F)(F)F)ccc3c2=O)C2(CCCC2)C1 (stereo partly drawn) [Example 126, 2-((10-Hydroxy-7-((R)-4,4,4-trifluoro-2-methylbutanoyl)-7-azaspiro[4.5]decan-10-yl)methyl)-6-(trifluoromethyl)isoquinolin-1(2H)-one]
5 | 0.5 to 5 µM | COc1ccc2ccn(CC3(O)CCN(C(=O)[C@H](C)CC4CCCCC4)CC34CCCC4)c(=O)c2c1 (stereo partly drawn) [Example 127, 2-((7-((R)-3-Cyclohexyl-2-methylpropanoyl)-10-hydroxy-7-azaspiro[4.5]decan-10-yl)methyl)-7-methoxyisoquinolin-1(2H)-one]
6 | 0.5 to 5 µM | C[C@H](CC1CCCCC1)C(=O)N1CCC(O)(Cn2cnc3ccccc3c2=O)C2(CCCC2)C1 (stereo partly drawn) [Example 128, 3-((7-((R)-3-Cyclohexyl-2-methylpropanoyl)-10-hydroxy-7-azaspiro[4.5]decan-10-yl)methyl)quinazolin-4(3H)-one]
7 | 0.5 to 5 µM | C[C@H](CC1CCCCC1)C(=O)N1CCC(O)(Cn2cnc3cc(Cl)ccc3c2=O)C2(CCCC2)C1 (stereo partly drawn) [Example 129, 7-Chloro-3-((7-((R)-3-cyclohexyl-2-methylpropanoyl)-10-hydroxy-7-azaspiro[4.5]decan-10-yl)methyl)quinazolin-4(3H)-one]
8 | 50 to 250 µM | C[C@H](CC(F)(F)F)C(=O)N1CCC(O)(Cn2cc(C(=O)N(C)C)c3ccccc3c2=O)C2(CCCC2)C1 (stereo partly drawn) [Example 130, 2-((10-Hydroxy-7-((R)-4,4,4-trifluoro-2-methylbutanoyl)-7-azaspiro[4.5]decan-10-yl)methyl)-N,N-dimethyl-1-oxo-1,2-dihydroisoquinoline-4-carboxamide]
9 | 0.5 to 5 µM | C[C@H](CC1CCCCC1)C(=O)N1CCC(O)(Cn2cnc3c(F)cccc3c2=O)C2(CCCC2)C1 (stereo partly drawn) [Example 131, 3-((7-((R)-3-Cyclohexyl-2-methylpropanoyl)-10-hydroxy-7-azaspiro[4.5]decan-10-yl)methyl)-8-fluoroquinazolin-4(3H)-one]
10 | 0.5 to 5 µM | C[C@H](CC1CCCCC1)C(=O)N1CCC(O)(Cn2cnc3sccc3c2=O)C2(CCCC2)C1 (stereo partly drawn) [Example 132, 3-((7-((R)-3-Cyclohexyl-2-methylpropanoyl)-10-hydroxy-7-azaspiro[4.5]decan-10-yl)methyl)thieno[2,3-d]pyrimidin-4(3H)-one]
11 | 5 to 50 µM | COc1ccc2c(=O)n(CC3(O)CCN(C(=O)[C@H](C)CC(F)(F)F)CC34CCCC4)cnc2c1 (stereo partly drawn) [Example 133, 3-((10-Hydroxy-7-((R)-4,4,4-trifluoro-2-methylbutanoyl)-7-azaspiro[4.5]decan-10-yl)methyl)-7-methoxyquinazolin-4(3H)-one]
12 | 5 to 50 µM | C[C@H](CC(F)(F)F)C(=O)N1CCC(O)(Cn2cnc3cc(Cl)ccc3c2=O)C2(CCCC2)C1 (stereo partly drawn) [Example 134, 7-Chloro-3-((10-hydroxy-7-((R)-4,4,4-trifluoro-2-methylbutanoyl)-7-azaspiro[4.5]decan-10-yl)methyl)quinazolin-4(3H)-one]
13 | 5 to 50 µM | C[C@H](CC(F)(F)F)C(=O)N1CCC(O)(Cn2ccc3ccc(F)cc3c2=O)C2(CCCC2)C1 (stereo partly drawn) [Example 135, 7-Fluoro-2-((10-hydroxy-7-((R)-4,4,4-trifluroo-2-methylbutanoyl)-7-azaspiro[4.5]decan-10-yl)methyl)isoquinolin-1(2H)-one]
14 | 5 to 50 µM | C[C@H](CC(F)(F)F)C(=O)N1CCC(O)(Cn2ccc3ccncc3c2=O)C2(CCCC2)C1 (stereo partly drawn) [Example 136, 2-((10-Hydroxy-7-((R)-4,4,4-trifluoro-2-methylbutanoyl)-7-azaspiro[4.5]decan-10-yl)methyl)-2,7-naphthyridin-1(2H)-one]
15 | < 0.5 µM | C[C@H](CC1CCCCC1)C(=O)N1CCC(O)(Cn2ccc3ccncc3c2=O)C2(CCCC2)C1 (stereo partly drawn) [Example 137, 2-((7-((R)-3-Cyclohexyl-2-methylpropanoyl)-10-hydroxy-7-azaspiro[4.5]decan-10-yl)methyl)-2,7-naphthyridin-1(2H)-one]
16 | 5 to 50 µM | C[C@H](CC1CCCCC1)C(=O)N1CCC(O)(Cn2ccc3occc3c2=O)C2(CCCC2)C1 (stereo partly drawn) [Example 138, 5-((7-((R)-3-Cyclohexyl-2-methylpropanoyl)-10-hydroxy-7-azaspiro[4.5]decan-10-yl)methyl)furo[3,2-c]pyridin-4(5H)-one]
17 | 0.5 to 5 µM | COc1ccc2c(=O)n(CC3(O)CCN(C(=O)[C@H](C)CC4CCCCC4)CC34CCCC4)cnc2c1 (stereo partly drawn) [Example 139, 3-((7-((R)-3-Cyclohexyl-2-methylpropanoyl)-10-hydroxy-7-azaspiro[4.5]decan-10-yl)methyl)-7-methoxyquinazolin-4(3H)-one]
18 | 50 to 250 µM | COc1cc2ccn(CC3(O)CCN(C(=O)[C@H](C)CC(F)(F)F)CC34CCCC4)c(=O)c2cc1OC (stereo partly drawn) [Example 140, 2-((10-Hydroxy-7-((R)-4,4,4-trifluoro-2-methylbutanoyl)-7-azaspiro[4.5]decan-10-yl)methyl)-6,7-dimethoxyisoquinolin-1(2H)-one]
19 | 5 to 50 µM | CCn1ncc2c(=O)n(CC3(O)CCN(C(=O)[C@H](C)CC(F)(F)F)CC34CCCC4)cnc21 (stereo partly drawn) [Example 141, 1-Ethyl-5-((10-hydroxy-7-((R)-4,4,4-trifluroo-2-methylbutanoyl)-7-azaspiro[4.5]decan-10-yl)methyl)-1,5-dihydro-4H-pyrazolo[3,4-d]pyrimidin-4-one]
20 | 5 to 50 µM | C[C@H](CC1CCCCC1)C(=O)N1CCC(O)(Cn2ccc3sccc3c2=O)C2(CCCC2)C1 (stereo partly drawn) [Example 142, 5-((7-((R)-3-Cyclohexyl-2-methylpropanoyl)-10-hydroxy-7-azaspiro[4.5]decan-10-yl)methyl)thieno[3,2-c]pyridin-4(5H)-one]
21 | < 0.5 µM | C[C@H](CC1CCCCC1)C(=O)N1CCC(O)(Cn2cnc3ccc(Cl)cc3c2=O)C2(CCCC2)C1 (stereo partly drawn) [Example 143, 6-Chloro-3-((7-((R)-3-cyclohexyl-2-methylpropanoyl)-10-hydroxy-7-azaspiro[4.5]decan-10-yl)methyl)quinazolin-4(3H)-one]
22 | 0.5 to 5 µM | C[C@H](CC1CCCCC1)C(=O)N1CCC(O)(Cn2cnc3ccsc3c2=O)C2(CCCC2)C1 (stereo partly drawn) [Example 144, 3-((7-((R)-3-Cyclohexyl-2-methylpropanoyl)-10-hydroxy-7-azaspiro[4.5]decan-10-yl)methyl)thieno[3,2-d]pyrimidin-4(3H)-one]
